Assay results reported in US20130079749A1, “Modular Drug Delivery System for Minimizing Trauma During and After Insertion of a Cochlear Lead” (ADVANCED BIONICS, LLC, priority 2007, published 2013).

Columns and labels:
auditory hair cells = test: Organ of Corti photomicrographs thirty days after electrode insertion trauma; assay type: in vivo, guinea pig; details: lower middle turn of cochlea, thirty days after EIT, FIG. 11 microphotograph D
From the text: The efficacy of DXMb was also studied by the Applicants in relationship to preserving residual hearing and internal nerve structures within the cochlea. In the study performed by the Applicants, 88 ears of 44 pigmented guinea pigs of 250 to 300 grams were randomly assigned to one of four groups as follows: group 1 corresponded to the contralateral, unoperated ears from groups 2 to 4 animals (n=44). Group 2 (n=15): electrode insertion trauma (EIT); these ears underwent EIT only via a cochleostomy and then immediate closure. Group 3 (n=15): EIT+artificial perilymph (EIT+AP) treated ears received EIT and immediately after trauma, insertion of a microcatheter into the cochleostomy site with AP perfused into the scala tympani (ST) for a period of 8 days. Group 4 (n=14): EIT dexamethasone base (EIT=DXMb) treated animals underwent EIT followed immediately by insertion of a microcatheter into the cochleostomy with ST perfusion of DXMb ([…]) in AP for a period of 8 days. Hearing measurements were performed before surgery, as well as on post-EIT days 0, 3, 7, 14, and 30. Tone bursts of 0.5, 1, 4, and 16 kHz were delivered to the ear at a rate of 29 Hz. The intensity of the stimulation was decreased by 10 dB sound pressure level (SPL) decrements until no auditory brainstem response was identified.
The organization of hair cells is in three distinct rows. […]

[1] = Solubility of dexamethasone forms; assay type: physicochemical
[2] = In-vivo comparison of DXMb and DEX salt delivered over a week
Protocol: In one study performed by the Applicants, a comparison of DXMb and DEX salt was performed in an in-vivo model over the prior of a week. […] This surprising potency allows for increased therapeutic effects without increasing the volume of the drug or the size of the intracochlear lead.

C[C@@H]1C[C@H]2[C@@H]3CCC4=CC(=O)C=C[C@]4(C)[C@@]3(F)[C@@H](O)C[C@]2(C)[C@@]1(O)C(=O)CO [DXMb, dexamethasone base]
hair cells and hair cell structure (auditory hair cells): substantially similar to that of the control group
solubility in aqueous preparations ([1]; aqueous preparations): limited solubility in aqueous preparations
solubility in organic solvents ([1]; organic solvents): highly soluble in organic solvents
effectiveness compared with DEX salt ([2]; DXMb 1 μL/hr at 70 μL/ml vs DEX salt 100 μL/ml at 1 μL/hr, in-vivo model, one week): just as effective
potency compared with salt forms of dexamethasone ([2]; administered into the intracochlear space after implantation surgeries): surprisingly more potent than salt forms of dexamethasone
